The values below are quoted from earlier work in patent publication US7521440B2, “Targeted oxidative therapeutic formulation” (Torquin, LLC, priority 2001, dated 2009).

One data set relates to E. coli. The following applies: increasing peroxide concentration ex-vivo in rabbit or human blood.
In data set [1] the test system is peroxide-sensitive E. coli. Conditions: infused into the blood of infected rabbits.

On to `OO` [hydrogen peroxide, Hydrogen peroxide], for which the direct bactericidal activity result in the data set on E. coli was “no evidence of direct bactericidal activity”. In data set [1], the bactericidal effect result is “no bactericidal effect”.
